# According to patent US8895471B2, “Chiral3-(benzylsulfinyl)-5,5-dimethyl-4,5-dihydroisoxazole derivatives and 5,5-dimethyl-3-[(1h-pyrazol-4-ylmethyl)sulfinyl]-4,5-dihyddroisoxazole derivatives, method for the production thereof, and use of same as herbicides and plant growth regulators” (Bayer Cropscience AG, priority 2007, dated 2014):
# Tests used:
# [1] = test system: Alopecurus myosuroides (black-grass); experiment: Pre-emergence herbicidal effect, ALOMY; format: in vivo; details: scored after about 3 weeks
# Source text: (§1) 1. Pre-emergence herbicidal effect and crop plant compatibility
# (§2) • Seeds of monocotyledonous or dicotyledonous weed plants or crop plants are planted in wood-fiber pots in sandy loam and covered with soil. The compounds according to the invention, formulated in the form of wettable powders (WP), are then applied as aqueous suspension at a water application rate of 600 l/ha (converted) with the addition of 0.2% of wetting agent to the surface of the covering soil. • After the treatment, the pots are placed in a greenhouse and kept under good growth conditions for the test plants. After about 3 weeks, the effect of the preparations is scored visually in comparison with untreated controls (herbicidal effect in percent (%): 100% activity=the plants have died, 0% activity=like control plants). • As shown by the results, the compounds according to the invention have good herbicidal pre-emergence activity against a broad spectrum of weed grasses and broad-leaved weeds. […] Some of the compounds according to the invention have high selectivity and are therefore suitable for controlling unwanted vegetation in agricultural crops by the pre-emergence method.
# (§3) • ALOMY Alopecurus myosuroides (black-grass) • LOLMU: Lolium multiflorum (Italian ryegrass) • SETVI: Setaria viridis (green foxtail) • BRSNW: Brassica napus (winter rape) • ZEAMX: Zea mays (corn) 2. Post-Emergence Herbicidal Effect and Crop Plant Compatibility • Seeds of monocotyledonous and dicotyledonous weed and crop plants are placed in sandy loam in wood fibre pots, covered with soil and cultivated in a greenhouse under good growth conditions. 2 to 3 weeks after sowing, the test plants are treated at the one-leaf stage. The compounds according to the invention, formulated in the form of wettable powders (WP), are then applied by spraying as aqueous suspension at a water application rate of 600 l/ha (converted) with the addition of 0.2% of wetting agent to the green parts of the plants. After the test plants have been kept in the greenhouse under optimum growth conditions for about 3 weeks, the activity of the preparations is rated visually in comparison to untreated controls (herbicidal activity in percent (%): 100% activity=the plants have died, 0% activity=like control plants). • As shown by the results, the compounds according to the invention have good herbicidal post-emergence activity against a plurality of weed grasses and broad-leaved weeds. […] Some of the compounds according to the invention have high selectivity and are therefore suitable for controlling unwanted vegetation in agricultural crops by the post-emergence method.
# Zea mays (corn) = experiment: Pre-emergence herbicidal effect and crop plant compatibility, ZEAMX; format: in vivo; details: scored after about 3 weeks
# Source text: as §1, §2, §3
# POLCO = experiment: Pre-emergence herbicidal effect, POLCO; format: in vivo; details: scored after about 3 weeks
# Source text: as §1, §2
# VERPE = experiment: Pre-emergence herbicidal effect, VERPE; format: in vivo, Veronica persica; details: scored after about 3 weeks
# Source text: as §1, §2
# [2] = test system: Brassica napus (winter rape); experiment: Pre-emergence herbicidal effect and crop plant compatibility, BRSNW; format: in vivo; details: scored after about 3 weeks
# Source text: as §1, §2, §3
# [3] = test system: Lolium multiflorum (Italian ryegrass); experiment: Pre-emergence herbicidal effect, LOLMU; format: in vivo; details: scored after about 3 weeks
# Source text: as §1, §2, §3
# [4] = test system: Setaria viridis (green foxtail); experiment: Pre-emergence herbicidal effect, SETVI; format: in vivo; details: scored after about 3 weeks
# Source text: as §1, §2, §3
# [5] = test system: Avena fatua, Stellaria media, Echinochloa crus-galli, Lolium multiflorum, Setaria viridis, Amaranthus retroflexus, Viola tricolor, Veronica persica and …; experiment: Pre-emergence herbicidal activity against harmful plants; format: in vivo; details: application rate of 0.32 kg and less of active substance per hectare
# Source text: as §1, §2
# [6] = test system: Avena fatua, Echinochloa crus-galli, Lolium multiflorum, Setaria viridis and Alopecurus myosuroides; experiment: Post-emergence herbicidal effect and crop plant compatibility; format: in vivo; details: application rate of 0.32 kg and less of active substance per hectare
# Source text: as §3
structure (smiles),measurement,setting,value
"CC1(C)CC([S+]([O-])Cc2c(Cl)cccc2Cl)=NO1 (racemic) [Racemate of 32 (S config.) and 254 (R config.), 3-[(2,6-dichlorobenzyl)sulfinyl]-5,5-dimethyl-4,5-dihydroisoxazole, reference compound]","herbicidal effect in percent, ALOMY",[1]; 20 g of active compound/ha,80%
same,"herbicidal effect in percent, ALOMY",[1]; 80 g of active compound/ha,90%
same,"herbicidal effect in percent, ZEAMX (crop plant)",Zea mays (corn); 20 g of active compound/ha,0%
same,"herbicidal effect in percent, ZEAMX (crop plant)",Zea mays (corn); 80 g of active compound/ha,10%
same,"herbicidal effect in percent, POLCO",POLCO; 80 g of active compound/ha,20%
same,"herbicidal effect in percent, VERPE",VERPE; 20 g of active compound/ha,0%
"Cn1nc(C(F)(F)F)c(C[S@+]([O-])C2=NOC(C)(C)C2)c1OC(F)F [Compound 483, 3-[(S)-{[5-(Difluoromethoxy)-1-methyl-3-(trifluoromethyl)-1H-pyrazol-4-yl]methyl}sulfinyl]-5,5-dimethyl-4,5-dihydroisoxazole]","herbicidal effect in percent, BRSNW (crop plant)",[2]; 20 g of active compound/ha,0%
same,"herbicidal effect in percent, BRSNW (crop plant)",[2]; 80 g of active compound/ha,0%
same,"herbicidal effect in percent, ALOMY",[1]; 20 g of active compound/ha,80%
same,"herbicidal effect in percent, ALOMY",[1]; 80 g of active compound/ha,100%
same,"herbicidal effect in percent, LOLMU",[3]; 20 g of active compound/ha,60%
same,"herbicidal effect in percent, LOLMU",[3]; 80 g of active compound/ha,100%
same,"herbicidal effect in percent, SETVI",[4]; 20 g of active compound/ha,80%
same,"herbicidal effect in percent, SETVI",[4]; 80 g of active compound/ha,90%
same,"herbicidal activity against harmful plants, pre-emergence method",[5],very good herbicidal activity
same,"herbicidal activity against harmful plants, post-emergence method",[6],very good herbicidal activity
"CC1(C)CC([S@@+]([O-])Cc2c(Cl)cccc2Cl)=NO1 [Compound 32, 3-[(S)-(2,6-Dichlorobenzyl)sulfinyl]-5,5-dimethyl-4,5-dihydroisoxazole]","herbicidal effect in percent, ALOMY",[1]; 20 g of active compound/ha,80%
same,"herbicidal effect in percent, ALOMY",[1]; 80 g of active compound/ha,100%
same,"herbicidal effect in percent, ZEAMX (crop plant)",Zea mays (corn); 20 g of active compound/ha,0%
same,"herbicidal effect in percent, ZEAMX (crop plant)",Zea mays (corn); 80 g of active compound/ha,0%
same,"herbicidal effect in percent, POLCO",POLCO; 20 g of active compound/ha,40%
same,"herbicidal effect in percent, POLCO",POLCO; 80 g of active compound/ha,80%
same,"herbicidal effect in percent, VERPE",VERPE; 20 g of active compound/ha,40%
same,"herbicidal effect in percent, VERPE",VERPE; 80 g of active compound/ha,100%
same,"herbicidal activity against harmful plants, pre-emergence method",[5],very good herbicidal activity
same,"herbicidal activity against harmful plants, post-emergence method",[6],very good herbicidal activity
"CC1(C)CC([S@+]([O-])Cc2c(Cl)cccc2Cl)=NO1 [Compound 254, 3-[(R)-(2,6-dichlorobenzyl)sulfinyl]-5,5-dimethyl-4,5-dihydroisoxazole]","herbicidal effect in percent, ALOMY",[1]; 20 g of active compound/ha,0%
same,"herbicidal effect in percent, ALOMY",[1]; 80 g of active compound/ha,60%
same,"herbicidal effect in percent, ZEAMX (crop plant)",Zea mays (corn); 20 g of active compound/ha,0%
same,"herbicidal effect in percent, ZEAMX (crop plant)",Zea mays (corn); 80 g of active compound/ha,0%
same,"herbicidal effect in percent, POLCO",POLCO; 20 g of active compound/ha,10%
same,"herbicidal effect in percent, POLCO",POLCO; 80 g of active compound/ha,20%
same,"herbicidal effect in percent, VERPE",VERPE; 20 g of active compound/ha,0%
same,"herbicidal effect in percent, VERPE",VERPE; 80 g of active compound/ha,20%
same,"herbicidal activity against harmful plants, pre-emergence method",[5],very good herbicidal activity
same,"herbicidal activity against harmful plants, post-emergence method",[6],very good herbicidal activity
"Cn1nc(C(F)(F)F)c(C[S@@+]([O-])C2=NOC(C)(C)C2)c1OC(F)F [Compound 664, 3-[(R)-{[5-(difluoromethoxy)-1-methyl-3-(trifluoromethyl)-1H-pyrazol-4-yl]methyl}sulfinyl]-5,5-dimethyl-4,5-dihydroisoxazole]","herbicidal activity against harmful plants, pre-emergence method",[5],very good herbicidal activity
same,"herbicidal activity against harmful plants, post-emergence method",[6],very good herbicidal activity
"Cn1nc(C(F)(F)F)c(C[S+]([O-])C2=NOC(C)(C)C2)c1OC(F)F (racemic) [Racemate of 483 (S config.) and 664 (R config.), 3-({[5-(difluoromethoxy)-1-methyl-3-(trifluoromethyl)-1H-pyrazol-4-yl]methyl}sulfinyl)-5,5-dimethyl-4,5-dihydroisoxazole, reference compound]","herbicidal effect in percent, BRSNW (crop plant)",[2]; 20 g of active compound/ha,0%
same,"herbicidal effect in percent, BRSNW (crop plant)",[2]; 80 g of active compound/ha,0%
same,"herbicidal effect in percent, ALOMY",[1]; 20 g of active compound/ha,0%
same,"herbicidal effect in percent, ALOMY",[1]; 80 g of active compound/ha,90%
same,"herbicidal effect in percent, LOLMU",[3]; 20 g of active compound/ha,0%
same,"herbicidal effect in percent, LOLMU",[3]; 80 g of active compound/ha,90%
same,"herbicidal effect in percent, SETVI",[4]; 20 g of active compound/ha,40%
same,"herbicidal effect in percent, SETVI",[4]; 80 g of active compound/ha,80%
"CC1(C)CC([S@+]([O-])Cc2c(F)cccc2F)=NO1 [Compound 228, 3-[(R)-(2,6-difluorobenzyl)sulfinyl]-5,5-dimethyl-4,5-dihydroisoxazole]","herbicidal effect in percent, BRSNW (crop plant)",[2]; 80 g of active compound/ha,0%
same,"herbicidal effect in percent, BRSNW (crop plant)",[2]; 320 g of active compound/ha,0%
same,"herbicidal effect in percent, ALOMY",[1]; 80 g of active compound/ha,60%
same,"herbicidal effect in percent, ALOMY",[1]; 320 g of active compound/ha,80%
same,"herbicidal effect in percent, LOLMU",[3]; 80 g of active compound/ha,0%
same,"herbicidal effect in percent, LOLMU",[3]; 320 g of active compound/ha,0%
same,"herbicidal effect in percent, SETVI",[4]; 80 g of active compound/ha,0%
same,"herbicidal effect in percent, SETVI",[4]; 320 g of active compound/ha,50%
same,"herbicidal activity against harmful plants, pre-emergence method",[5],very good herbicidal activity
same,"herbicidal activity against harmful plants, post-emergence method",[6],very good herbicidal activity
"CC1(C)CC([S+]([O-])Cc2c(F)cccc2F)=NO1 (racemic) [Racemate of 6 (S config.) and 228 (R config.), 3-[(2,6-difluorobenzyl)sulfinyl]-5,5-dimethyl-4,5-dihydroisoxazole, reference compound]","herbicidal effect in percent, BRSNW (crop plant)",[2]; 80 g of active compound/ha,20%
same,"herbicidal effect in percent, BRSNW (crop plant)",[2]; 320 g of active compound/ha,30%
same,"herbicidal effect in percent, ALOMY",[1]; 80 g of active compound/ha,70%
same,"herbicidal effect in percent, ALOMY",[1]; 320 g of active compound/ha,100%
same,"herbicidal effect in percent, LOLMU",[3]; 80 g of active compound/ha,80%
same,"herbicidal effect in percent, LOLMU",[3]; 320 g of active compound/ha,80%
same,"herbicidal effect in percent, SETVI",[4]; 80 g of active compound/ha,40%
same,"herbicidal effect in percent, SETVI",[4]; 320 g of active compound/ha,40%
"CC1(C)CC([S@@+]([O-])Cc2c(F)cccc2F)=NO1 [Compound 6, 3-[(S)-(2,6-Difluorobenzyl)sulfinyl]-5,5-dimethyl-4,5-dihydroisoxazole]","herbicidal effect in percent, BRSNW (crop plant)",[2]; 80 g of active compound/ha,0%
same,"herbicidal effect in percent, BRSNW (crop plant)",[2]; 320 g of active compound/ha,0%
same,"herbicidal effect in percent, ALOMY",[1]; 80 g of active compound/ha,90%
same,"herbicidal effect in percent, ALOMY",[1]; 320 g of active compound/ha,100%
same,"herbicidal effect in percent, LOLMU",[3]; 80 g of active compound/ha,80%
same,"herbicidal effect in percent, LOLMU",[3]; 320 g of active compound/ha,100%
same,"herbicidal effect in percent, SETVI",[4]; 80 g of active compound/ha,60%
same,"herbicidal effect in percent, SETVI",[4]; 320 g of active compound/ha,100%
same,"herbicidal activity against harmful plants, pre-emergence method",[5],very good herbicidal activity
same,"herbicidal activity against harmful plants, post-emergence method",[6],very good herbicidal activity
